This is an account of results in PubChem BioAssay AID1330 (NMMLSC, 2008).

The source made the active and inactive calls. How the calls were made is not given here.

The assay deals with Bcl-2-like protein 2 (Homo sapiens) (UniProt Q92843). Put plainly: Bcl-W/Bim binding regulators – biochemical, multiplexed, bead-based flow cytometry, fluorescence, dose response (AID 1330).
Bcl-2-like protein 2 (Homo sapiens), sequence (Q92843 whole entry, looked up): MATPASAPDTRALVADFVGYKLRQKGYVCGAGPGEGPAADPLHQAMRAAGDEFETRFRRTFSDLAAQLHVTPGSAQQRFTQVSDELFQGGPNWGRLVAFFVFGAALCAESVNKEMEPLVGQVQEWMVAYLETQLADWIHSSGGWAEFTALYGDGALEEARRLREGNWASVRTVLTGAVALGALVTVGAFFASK

The EC50 is the midpoint of the concentration-response curve. With `O=C(N/N=C/c1ccc(O)c(O)c1O)/C(=C/c1ccc([N+](=O)[O-])cc1)NC(=O)c1ccccc1`, the EC50 entry is “inactive”.

In the case of `COc1cccc(/C=N/Nc2nn3cnnc3c3ccccc23)c1`, the EC50 result is “inactive”. Under `O=[N+]([O-])c1ccc(N/N=C/c2ccc(O)c(O)c2O)c(S(=O)(=O)N2CCOCC2)c1` stands 3.52 µM. Under `CCC(=O)N(CC)C1=C(O)c2ccccc2C(=O)C1=O` stands “inactive”; under `COc1cccc(/C=N/Nc2nn3cnnc3c3ccccc23)c1O`, “inactive”.
